Results on one compound are retold here after patent US20240226072A1 (Stichting Het Nederlands Kanker Instituut, priority 2022, published 2024).

One data set can be described thus: in vivo. The settings on record: male, mouse, po, 10 mg/kg; for AUC(0-t): AUC0-24 h. The method, then:
The Jevtana (10 mg/mL) solution contains 0.26 mg/mL polysorbate 80 and 15% (w/v) ethanol, and is adjusted to pH 2-6 with citric acid. […] The stock solution was further diluted 5-fold with water to reach a 2.5 mg/mL dosing solution for oral administration. The vehicle solution only consists of polysorbate 80, ethanol and water (1:1:8, v/v/v). […] All dosing solutions were prepared freshly on the day of the experiment.
At the termination time point of 24 hours, mice were anesthetized using an isoflurane evaporator with 3% isoflurane with 0.8 L/min air and 0.3 L/min oxygen. A final blood sample was taken using cardiac puncture, using Eppendorf tubes previously prepared with heparin as an anticoagulant. Subsequently, the anesthetized mice were sacrificed by cervical dislocation and the tissues of interest were collected. Brain, liver, spleen, kidney, small intestine, and testis were collected. The small intestinal content (SIC) was separately collected by removing this from the small intestinal tissue, which was subsequently rinsed with saline to remove possibly fecal residue. The blood samples were centrifuged at 9,000×g for 6 minutes at 4° C., and the plasma fraction was isolated and stored at −30° C. until analysis. Brain, liver, spleen, kidney, small intestinal tissue, SIC, and testis were homogenized in a FastPrep-24™ 5G homogenizer (M. P. Biomedicals, Santa Ana, CA, USA) for 1 min with 1, 3, 1, 2, 3, 2, and 1 mL of 2% (w/v) BSA in Milli-Q water, respectively. Until analysis of the samples, they were all stored at −30° C.
Pharmacokinetic parameters were estimated by non-compartmental analysis using the software package of PK solutions 2.0.2 (SUMMIT, Research Service). The area under the curve (AUC) of the plasma-concentration time curve for all the compounds was calculated using the linear trapezoidal rule without extrapolating to infinity. The peak plasma concentration (Cmax) and the time to reach peak plasma concentration (Tmax) were obtained directly from the individual raw data. For the statistical analysis and the graphs GraphPad Prism 9 (GraphPad Software Inc., La Jolla, CA, USA) was used. The statistics for the comparison of multiple groups were calculated with the one-way analysis of variance (ANOVA), whereas Sidak's post hoc correction was performed. Log-transformation before statistical analysis was applied, when variances within the groups were not homogeneously distributed. Differences were considered statistically significant when P<0.05. All data are presented as geometric mean±SD.

Data set [1] in a line: Plasma pharmacokinetics and tissue distribution 2 h after oral cabazitaxel 10 mg/kg with vehicle or 25 mg/kg ritonavir in wild-type, Oatp1a/1b−/−, Oatp1a/1b/2b1−/−, OATP1B1- and OATP1B3-transgenic mice. The settings on record: for reduction of SIC recovered percentage of dose corrected for the plasma AUC: vehicle + oral cabazitaxel 10 mg/kg, 2 h; for Cmax / Tmax / AUC(0-t): male, FVB, mouse, plasma, po, 10 mg/kg, vehicle pretreatment, oral 10 mg/kg cabazitaxel; for AUC(0-t): 0-2 h, read-out: AUC0-2 h. Format: in vivo. The method, then:
All animals were fasted 2 to 3 hours prior to the start of the experiment to minimize variation in absorption after oral administration. […] Subsequently, cardiac puncture was performed with a heparinized needle and syringe collecting a final blood sample. […] All samples were stored at −30° C. until analysis.
Differences were considered statistically significant when P<0.05. All data are presented as geometric mean±SD.

For data set [2] the following is noted: Oatp1a/b−/− compared to wild-type mice after intravenous administration; Iusuf et al.; cited from earlier work.
For data set [3] the following is noted: chemically castrated men compared to non-castrated patients; cited from earlier work.
The mark [4] stands for this setting: Cyp3aXAV (human CYP3A in Cyp3a−/−, FVB background).

`CC(=O)O[C@@]12CO[C@@H]1C[C@H](O)[C@@]1(C)C(=O)[C@H](O)C3=C(C)[C@@H](OC(=O)[C@H](O)[C@@H](NC(=O)OC(C)(C)C)c4ccccc4)C[C@@](O)([C@@H](OC(=O)c4ccccc4)[C@H]21)C3(C)C` [docetaxel] displayed an AUC0-24 h in the data set “in vivo” (setting [4]) of 0.271 µM·h. The AUC(0-t) in “in vivo” (setting [4]) amounted to 0.285 µM·h; in the data set “in vivo” (FVB, Cyp3aXAV), 0.681 µM·h; in the data set “in vivo” (FVB, wild-type), 0.707 µM·h; in data set [1] (OATP1B1-transgenic mice), 0.271 ± 0.144 µM·h; in data set [1] (OATP1B3-transgenic mice) it was 0.305 ± 0.177 µM·h; in data set [1] (Oatp1a/1b/2b1−/− mice) it was 0.252 ± 0.069 µM·h. Besides, the AUC(0-t) in data set [1] (Oatp1a/1b−/− mice) came out at 0.216 ± 0.047 µM·h; in data set [1] (wild-type mice) it was 0.091 ± 0.043 µM·h. The Cmax (in general, the highest concentration seen after dosing) in the data set “in vivo” (FVB, wild-type, Cmax) was determined as 119 nM; in data set [1] (OATP1B1-transgenic mice) it was 206 ± 105 nM; in data set [1] (OATP1B3-transgenic mice), 248 ± 145 nM; in data set [1] (Oatp1a/1b/2b1−/− mice), 202 ± 65 nM; in data set [1] (Oatp1a/1b−/− mice) it was 191 ± 43 nM; in data set [1] (wild-type mice), 84 ± 30 nM. In addition, the “reduction of SIC recovered percentage of dose corrected for the plasma AUC” value in data set [1] (Oatp1a/1b/2b1−/− compared to wild-type mice) came out at 2.9 fold; in data set [1] (Oatp1a/1b−/− compared to wild-type mice), 4.0 fold. Also, the Tmax – broadly, the time from dosing to the highest level – in data set [1] (OATP1B1-transgenic mice) is 35 min; in data set [1] (OATP1B3-transgenic mice), 45 min; in data set [1] (Oatp1a/1b/2b1−/− mice) it was 35 min; in data set [1] (Oatp1a/1b−/− mice), 35 min; in data set [1] (wild-type mice), 25 min. In data set [2], the “increase in plasma AUC” value is reported as 3 fold. Further, the “reduction of plasma AUC” value in data set [3] is recorded as 2 fold.
